For test [1], the target named is Cannabinoid receptor 1 (Rattus norvegicus, UniProt P20272). Briefly: Displacement of [3H]-CP55940 from CB1 receptor in rat […] membranes after 60 mins by scintillation counting method. The test is classed as cell membranes.
In test [2] the target is Cannabinoid receptor 2 (Mus musculus, UniProt P47936). Kind of test: Displacement of [3H]-CP55940 from CB2 receptor in mouse spleen membranes after 60 mins by scintillation counting method. The test is classed as cell membranes. Background: Loss of bound radioactivity is the signal in a displacement assay; it reports binding, not function.
Test [3] addresses T1, Cannabinoid receptor 1 (Homo sapiens, UniProt P21554). Briefly: Displacement of [3H]-CP55940 from recombinant human CB1 receptor expressed in HEK293-EBNA cell membranes after 90 mins by scintillation counting method.
Test [4] deals with T2, Cannabinoid receptor 2 (Homo sapiens, UniProt P34972). Briefly: Displacement of [3H]-CP55940 from recombinant human CB2 receptor expressed in HEK293 cell membranes after 90 mins by scintillation counting method.
The target of test [5] is T2, Cannabinoid receptor 2. Briefly: Displacement of [3H]-CP55940 from CB2 receptor (unknown origin).
Test [6] has as its target T3, Diacylglycerol lipase-alpha (Homo sapiens, UniProt Q9Y4D2).
T3 sequence (Q9Y4D2 whole entry): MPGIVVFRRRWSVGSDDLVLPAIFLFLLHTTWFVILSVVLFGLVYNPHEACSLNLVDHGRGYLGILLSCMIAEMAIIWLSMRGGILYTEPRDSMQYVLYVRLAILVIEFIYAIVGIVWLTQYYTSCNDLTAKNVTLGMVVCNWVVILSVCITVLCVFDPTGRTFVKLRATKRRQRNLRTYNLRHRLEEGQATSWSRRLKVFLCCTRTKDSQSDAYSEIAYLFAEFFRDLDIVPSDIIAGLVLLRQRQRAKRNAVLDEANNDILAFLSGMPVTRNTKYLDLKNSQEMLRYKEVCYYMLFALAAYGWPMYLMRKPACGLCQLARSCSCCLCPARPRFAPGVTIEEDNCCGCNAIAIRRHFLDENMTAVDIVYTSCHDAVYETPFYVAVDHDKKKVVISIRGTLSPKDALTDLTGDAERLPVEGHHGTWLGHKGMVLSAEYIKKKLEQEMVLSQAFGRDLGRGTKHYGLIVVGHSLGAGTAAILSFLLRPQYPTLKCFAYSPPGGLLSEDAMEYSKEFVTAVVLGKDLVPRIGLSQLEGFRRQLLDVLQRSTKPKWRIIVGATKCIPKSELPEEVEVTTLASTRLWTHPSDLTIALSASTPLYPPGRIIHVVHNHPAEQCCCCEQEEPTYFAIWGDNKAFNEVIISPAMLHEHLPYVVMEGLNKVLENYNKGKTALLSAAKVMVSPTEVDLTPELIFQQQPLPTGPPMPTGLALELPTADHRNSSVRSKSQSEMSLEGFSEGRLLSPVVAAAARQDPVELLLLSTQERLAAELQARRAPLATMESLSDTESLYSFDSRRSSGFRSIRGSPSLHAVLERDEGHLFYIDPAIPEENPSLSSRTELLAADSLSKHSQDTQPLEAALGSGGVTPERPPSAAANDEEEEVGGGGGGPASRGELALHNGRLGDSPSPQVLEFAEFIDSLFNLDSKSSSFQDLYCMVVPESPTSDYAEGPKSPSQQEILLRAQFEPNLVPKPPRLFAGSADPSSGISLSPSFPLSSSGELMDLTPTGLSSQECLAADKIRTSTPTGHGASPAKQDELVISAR
Kind of test: Inhibition of recombinant human DAGLalpha expressed in COS7 cells using [14C]-oleoyl-2-arachidonoyl-glycerol as substrate measured after 20 mins by beta-counting method. The test is classed as cell-based.

In test [7] the target is T4, Diacylglycerol lipase-alpha (Homo sapiens) (UniProt Q9Y4D2).
T4 sequence (whole entry): T3 sequence (Q9Y4D2 whole entry)
Kind of test: Inhibition of recombinant human DAGLalpha expressed in COS7 cells at 100 uM using [14C]-oleoyl-2-arachidonoyl-glycerol as substrate measured after 20 mins by beta-counting method relative to control. The test is classed as cell-based.

Test [8] can be described thus: Inhibition of MAGL in African green monkey COS cell homogenates using [3H]-arachidonoylglycerol as substrate measured after 20 mins by scintillation counting method. The test is classed as tissue-based, Chlorocebus aethiops.
The species entered for a further test is Chlorocebus aethiops. Kind of test: Inhibition of MAGL in African green monkey COS cell homogenates at 100 uM using [3H]-arachidonoylglycerol as substrate measured after 20 mins by scintillation counting method relative to control. The test is classed as tissue-based.
Test [9] concerns the target T5, Fatty-acid amide hydrolase 1 (Rattus norvegicus, UniProt P97612).
T5 sequence (P97612 whole entry): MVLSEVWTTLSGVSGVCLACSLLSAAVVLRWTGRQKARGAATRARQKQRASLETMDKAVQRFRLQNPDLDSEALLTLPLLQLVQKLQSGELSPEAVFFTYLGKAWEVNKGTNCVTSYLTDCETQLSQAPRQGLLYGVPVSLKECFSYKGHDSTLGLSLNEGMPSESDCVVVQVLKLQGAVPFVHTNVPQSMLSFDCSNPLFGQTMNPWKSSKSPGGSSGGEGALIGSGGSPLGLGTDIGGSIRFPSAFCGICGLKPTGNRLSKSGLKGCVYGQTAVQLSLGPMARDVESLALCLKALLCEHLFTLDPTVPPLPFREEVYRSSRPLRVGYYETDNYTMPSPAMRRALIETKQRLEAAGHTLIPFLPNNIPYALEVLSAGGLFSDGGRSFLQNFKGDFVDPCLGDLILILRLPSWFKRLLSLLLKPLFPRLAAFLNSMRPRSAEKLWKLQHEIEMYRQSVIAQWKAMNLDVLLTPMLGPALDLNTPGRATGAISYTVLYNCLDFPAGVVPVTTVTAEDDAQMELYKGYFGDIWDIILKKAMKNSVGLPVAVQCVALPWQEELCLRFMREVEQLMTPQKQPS
Briefly: Inhibition of FAAH in rat brain membranes using [14C]-AEA as substrate measured after 30 mins by scintillation counting method. The test is classed as cell membranes.

In test [10] the target is T6, Fatty-acid amide hydrolase 1 (Rattus norvegicus) (UniProt P97612).
T6 sequence (whole entry): T5 sequence (P97612 whole entry)
Kind of test: Inhibition of FAAH in rat brain membranes at 50 uM using [14C]-AEA as substrate measured after 30 mins by scintillation counting method relative to control. The test is classed as cell membranes.

Test [11] concerns the target T7, N-acylethanolamine-hydrolyzing acid amidase (Homo sapiens, UniProt Q02083).
T7 sequence (Q02083 whole entry): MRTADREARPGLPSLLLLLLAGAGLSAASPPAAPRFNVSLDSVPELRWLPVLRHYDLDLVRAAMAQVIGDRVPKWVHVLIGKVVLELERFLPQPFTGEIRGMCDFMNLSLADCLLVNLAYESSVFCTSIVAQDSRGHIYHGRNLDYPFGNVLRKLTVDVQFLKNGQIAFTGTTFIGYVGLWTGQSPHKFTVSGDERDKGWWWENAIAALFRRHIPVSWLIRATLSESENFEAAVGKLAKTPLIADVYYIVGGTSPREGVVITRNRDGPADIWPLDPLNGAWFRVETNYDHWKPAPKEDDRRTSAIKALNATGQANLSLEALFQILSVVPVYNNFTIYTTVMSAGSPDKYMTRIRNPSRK
Briefly: Inhibition of recombinant human NAAA expressed in HEK293 cells using [14C]-N-palmitoylethanolamine as substrate measured after 30 mins by beta-counting method. The test is classed as cell-based.

For test [12], the target named is T8, N-acylethanolamine-hydrolyzing acid amidase (Homo sapiens) (UniProt Q02083).
T8 sequence (whole entry): T7 sequence (Q02083 whole entry)
Kind of test: Inhibition of recombinant human NAAA expressed in HEK293 cells at 100 uM using [14C]-N-palmitoylethanolamine as substrate measured after 30 mins by beta-counting method relative to control. The test is classed as cell-based.

For test [13], the system named is RBL-2H3. Kind of test: Inhibition of [14C]-AEA uptake in rat RBL2H3 cells by scintillation counting method. The test is classed as functional, cell-based.
Test [14] relates to RBL-2H3. Briefly: Inhibition of [14C]-AEA uptake in rat RBL2H3 cells at 25 uM by scintillation counting method relative to control. The test is classed as functional.
Test [15] concerns the target T1, Cannabinoid receptor 1. Kind of test: Displacement of [3H]-CP55940 from recombinant human CB1 receptor expressed in Sf9 cell membranes co-expressing Galphai3beta1gamma2 measured after 90 mins by scintillation counting method.
Test [16] deals with T6, Fatty-acid amide hydrolase 1 (Rattus norvegicus). Briefly: Inhibition of FAAH in rat brain membranes at 100 uM using [14C]-AEA as substrate measured after 30 mins by scintillation counting method relative to control. The test is classed as cell membranes.
For test [17], the target named is T8, N-acylethanolamine-hydrolyzing acid amidase (Homo sapiens). Briefly: Inhibition of recombinant human NAAA expressed in HEK293 cells at 50 uM using [14C]-N-palmitoylethanolamine as substrate measured after 30 mins by beta-counting method relative to control. The test is classed as cell-based.
In test [18] the target is T1, Cannabinoid receptor 1. Briefly: Displacement of [3H]-CP55940 from CB1 receptor (unknown origin).
The target in test [19] is T2, Cannabinoid receptor 2. Kind of test: Displacement of [3H]-CP55940 from recombinant human CB2 receptor expressed in HEK293 cell membranes measured after 90 mins.
Test [20] deals with T2, Cannabinoid receptor 2. Kind of test: Displacement of [3H]-CP55940 from recombinant CB2 receptor (unknown origin) expressed in cell membranes after 90 mins by scintillation counting method.
Test [21] concerns the target T2, Cannabinoid receptor 2. Kind of test: Displacement of [3H]-CP55940 from recombinant human CB2 receptor expressed in Sf9 cell membranes co-expressing Galphai3beta1gamma2 measured after 90 mins by scintillation counting method.

T2 sequence (P34972 whole entry): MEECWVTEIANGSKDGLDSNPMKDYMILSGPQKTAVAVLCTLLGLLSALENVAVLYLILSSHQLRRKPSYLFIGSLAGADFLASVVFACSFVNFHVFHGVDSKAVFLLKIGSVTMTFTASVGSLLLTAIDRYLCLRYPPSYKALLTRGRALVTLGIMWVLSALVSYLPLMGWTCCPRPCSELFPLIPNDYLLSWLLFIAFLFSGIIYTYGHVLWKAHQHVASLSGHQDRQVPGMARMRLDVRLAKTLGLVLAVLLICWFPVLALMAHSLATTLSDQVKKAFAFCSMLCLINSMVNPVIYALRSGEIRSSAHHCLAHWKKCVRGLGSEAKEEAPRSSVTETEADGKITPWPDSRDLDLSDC
Cannabinoid receptor 2 (Mus musculus, UniProt P47936), sequence (P47936 whole entry): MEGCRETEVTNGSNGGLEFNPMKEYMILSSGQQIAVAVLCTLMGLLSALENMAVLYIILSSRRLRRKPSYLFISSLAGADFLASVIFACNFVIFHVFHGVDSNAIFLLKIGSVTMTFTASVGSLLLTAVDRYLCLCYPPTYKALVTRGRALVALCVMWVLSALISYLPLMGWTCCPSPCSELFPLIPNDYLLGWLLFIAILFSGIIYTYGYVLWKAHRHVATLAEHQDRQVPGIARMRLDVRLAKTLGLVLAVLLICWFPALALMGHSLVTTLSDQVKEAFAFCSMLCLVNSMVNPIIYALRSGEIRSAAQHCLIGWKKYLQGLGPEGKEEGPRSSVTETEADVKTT
Cannabinoid receptor 1 (Rattus norvegicus, UniProt P20272), sequence (P20272 whole entry): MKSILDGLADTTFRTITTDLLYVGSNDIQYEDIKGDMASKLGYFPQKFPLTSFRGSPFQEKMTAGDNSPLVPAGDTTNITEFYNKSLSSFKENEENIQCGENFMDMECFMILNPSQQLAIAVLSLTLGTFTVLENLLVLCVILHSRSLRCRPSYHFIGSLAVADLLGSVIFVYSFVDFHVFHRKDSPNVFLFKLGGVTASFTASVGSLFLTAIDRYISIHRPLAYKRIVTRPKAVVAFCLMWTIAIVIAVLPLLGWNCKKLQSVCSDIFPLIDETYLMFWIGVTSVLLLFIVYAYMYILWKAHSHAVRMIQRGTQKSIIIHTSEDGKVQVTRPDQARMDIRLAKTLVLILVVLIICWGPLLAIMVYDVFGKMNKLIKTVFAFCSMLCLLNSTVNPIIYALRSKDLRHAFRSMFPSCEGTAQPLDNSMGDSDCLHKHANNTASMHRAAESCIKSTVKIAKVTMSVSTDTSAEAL
T1 sequence (P21554 whole entry): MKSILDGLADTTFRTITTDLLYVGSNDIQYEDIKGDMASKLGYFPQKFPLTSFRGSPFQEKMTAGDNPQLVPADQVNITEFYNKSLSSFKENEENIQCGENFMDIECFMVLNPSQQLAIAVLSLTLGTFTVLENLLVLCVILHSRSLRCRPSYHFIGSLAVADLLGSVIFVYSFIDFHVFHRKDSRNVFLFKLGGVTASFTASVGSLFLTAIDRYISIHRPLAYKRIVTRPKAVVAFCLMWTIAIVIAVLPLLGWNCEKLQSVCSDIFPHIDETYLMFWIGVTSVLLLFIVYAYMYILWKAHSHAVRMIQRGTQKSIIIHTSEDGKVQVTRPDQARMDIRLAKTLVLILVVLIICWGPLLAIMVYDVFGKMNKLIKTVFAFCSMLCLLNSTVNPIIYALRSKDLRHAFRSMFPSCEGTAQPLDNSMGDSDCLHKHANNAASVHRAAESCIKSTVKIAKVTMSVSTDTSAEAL

In general, Ki refers to a dissociation constant, usually derived from enzyme kinetics or from competition with a known ligand. Regarding `CCC/C=C\CC/C=C/C=C/C(=O)NCC(C)C`, the Ki was 11 µM on Cannabinoid receptor 1 [1] and 8.38 µM at Cannabinoid receptor 2 [2].
With `CC#CC#CCCCC/C=C/C(=O)NCC(C)CC` (stereo unspecified), the Ki is 6.73 µM at Cannabinoid receptor 1 [1] and 7.2 µM at Cannabinoid receptor 2 [2].
For `C#CC#CCCCC/C=C/C(=O)NCC(C)C`, the Ki on Cannabinoid receptor 1 [3] and on Cannabinoid receptor 2 [4] was greater than 40 µM in each case.
As to `O=C(O[C@@H]1Cc2c(O)cc(O)cc2O[C@@H]1c1cc(O)c(O)c(O)c1)c1cc(O)c(O)c(O)c1` [EPIGALOCATECHIN GALLATE], the Ki at Cannabinoid receptor 2 [5] stood at 42.8 µM.
One may read the IC50 as the midpoint of a concentration-inhibition curve. One may read the Emax as the maximal effect, on the per cent scale that the assay sets. For `CCCCCc1cc(O)c(C/C=C(\C)CCC=C(C)C)c(O)c1C(=O)O` [CANNABIGEROLIC ACID], the IC50 is 30.5 µM in test [6]; greater than 50 µM in [8]; greater than 50 µM in [9]; greater than 50 µM in [11]; greater than 25 µM with RBL-2H3 [13]. The Emax stood at 67.6% in [7], 17.2% in the test listed under Chlorocebus aethiops, 46.2% in test [10] and 33.2% in test [12]. In addition, the Emax at 25 µM with RBL-2H3 [14] was found to be 43.6%.
Consider `CC#CC#CCCCC/C=C/C=C/C(=O)NCC(C)C`, for which the inhibition constant (Ki) at Cannabinoid receptor 1 [1] is 24.6 µM; on Cannabinoid receptor 2 [2] it was 1.87 µM.
On to `CCCCCc1cc(O)c(C/C=C(\C)CCC=C(C)C)c(O)c1` [CANNABIGEROL], for which the Ki at Cannabinoid receptor 1 [15] was determined as 0.897 µM. The IC50 is greater than 100 µM in test [6]; 95.7 µM in test [8]; greater than 100 µM in [9]; greater than 100 µM in test [11]; 11.3 µM in the test with RBL-2H3 [13]. In addition, the Emax in [7] came out at 44.8%; in the test filed under Chlorocebus aethiops it was 54.2%; in test [16] it was 44.9%; in test [17] it was 19.4%. Moreover, the maximal response (Emax) at 25 µM in the test on RBL-2H3 [14] stood at 85.4%.
As for `O=C(O[C@@H]1Cc2c(O)cc(O)cc2O[C@@H]1c1ccc(O)c(O)c1)c1cc(O)c(O)c(O)c1` [EPICATECHIN GALLATE], the Ki at Cannabinoid receptor 1 [18] was 47.3 µM; on Cannabinoid receptor 2 [5], 95.6 µM.
On to `CC(C)=CCC/C(C)=C/Cc1c(O)cc(CCc2ccccc2)c(C(=O)O)c1O`, for which the Ki at Cannabinoid receptor 2 [19] is 0.828 µM.
Take `C/C=C\C=C\CC/C=C/C=C/C(=O)NCC(C)C`: the Ki on Cannabinoid receptor 2 [20] was found to be 4.53 µM.
Still for that read-out and setting: next, `C/C=C/C=C\CC/C=C/C=C/C(=O)NCC(C)C`: 9.04 µM.
In the case of `CCCCCc1cc(O)c2c(c1)OC(C)(CCC=C(C)C)C=C2` (stereo unspecified) [CANNABICHROMENE], the Ki at Cannabinoid receptor 1 [15] is 0.714 µM; on Cannabinoid receptor 2 [21], 0.257 µM. For the same compound, the 50% inhibitory concentration (IC50) in [6] is greater than 100 µM; in test [8], 50.1 µM; in test [9], greater than 100 µM; in test [11] it was greater than 100 µM; in the test on RBL-2H3 [13], 12.3 µM. The Emax in test [7] stood at 39.5%; in the test listed under Chlorocebus aethiops, 64.5%; in test [16] it was 46.5%; in test [17], 40.6%. In the test with RBL-2H3 [14], the Emax at 25 µM is 83.2%.
With `Oc1cc(O)c2c(c1)O[C@H](c1cc(O)c(O)c(O)c1)[C@H](O)C2` [EPIGALLOCATECHIN], the results for the Ki at Cannabinoid receptor 1 [18] and at Cannabinoid receptor 2 [5] were 35.7 µM and 361 µM, respectively.
For the compound `C/C=C\C=C/CC/C=C/C=C/C(=O)NCC(C)C`, the Ki at Cannabinoid receptor 1 [3] is 6.21 µM; at Cannabinoid receptor 2 [4], 0.057 µM.

For the origin of these results see ChEMBL document CHEMBL4422692, “Plant-Based Modulators of Endocannabinoid Signaling” (J Nat Prod, 2019).
